Source: US10196390B2, “TYK2 inhibitors and uses thereof” (Nimbus Lakshmi, Inc., priority 2014, dated 2019)

What was measured:
TYK2 = TYK2 (Homo sapiens (Human), UniProt P29597); assay: Tyk2 activity inhibition assay (radioactive kinase assay / Caliper assay); type: biochemical
Method in brief: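 Two formats were used. Caliper off-chip mobility shift read phosphorylated peptide 30 (3 uM) after 25 min at 28° C with 9.75 nM TYK2 and ATP at 16 uM or 1 mM. Radioactive assay: 10 μM 33P-ATP, 20 μM peptide, 120 min room temp, P81 filter counting.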

JAK2 = JAK2 (Homo sapiens (Human), UniProt O60674); assay: JAK2 activity inhibition assay (radioactive kinase assay / Caliper assay); type: biochemical; details: read-out: JAK2 Ki
Method in brief: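 Reaction ran 25 min at 28° C after adding peptide/ATP mix (10 mM MgCl2) to compound and enzyme in HEPES pH 7.5 buffer with Brij-35, Triton and EGTA. EDTA stop, then microfluidic off-chip separation quantified phosphorylated peptide.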

Sequence of JAK2 (O60674 whole entry): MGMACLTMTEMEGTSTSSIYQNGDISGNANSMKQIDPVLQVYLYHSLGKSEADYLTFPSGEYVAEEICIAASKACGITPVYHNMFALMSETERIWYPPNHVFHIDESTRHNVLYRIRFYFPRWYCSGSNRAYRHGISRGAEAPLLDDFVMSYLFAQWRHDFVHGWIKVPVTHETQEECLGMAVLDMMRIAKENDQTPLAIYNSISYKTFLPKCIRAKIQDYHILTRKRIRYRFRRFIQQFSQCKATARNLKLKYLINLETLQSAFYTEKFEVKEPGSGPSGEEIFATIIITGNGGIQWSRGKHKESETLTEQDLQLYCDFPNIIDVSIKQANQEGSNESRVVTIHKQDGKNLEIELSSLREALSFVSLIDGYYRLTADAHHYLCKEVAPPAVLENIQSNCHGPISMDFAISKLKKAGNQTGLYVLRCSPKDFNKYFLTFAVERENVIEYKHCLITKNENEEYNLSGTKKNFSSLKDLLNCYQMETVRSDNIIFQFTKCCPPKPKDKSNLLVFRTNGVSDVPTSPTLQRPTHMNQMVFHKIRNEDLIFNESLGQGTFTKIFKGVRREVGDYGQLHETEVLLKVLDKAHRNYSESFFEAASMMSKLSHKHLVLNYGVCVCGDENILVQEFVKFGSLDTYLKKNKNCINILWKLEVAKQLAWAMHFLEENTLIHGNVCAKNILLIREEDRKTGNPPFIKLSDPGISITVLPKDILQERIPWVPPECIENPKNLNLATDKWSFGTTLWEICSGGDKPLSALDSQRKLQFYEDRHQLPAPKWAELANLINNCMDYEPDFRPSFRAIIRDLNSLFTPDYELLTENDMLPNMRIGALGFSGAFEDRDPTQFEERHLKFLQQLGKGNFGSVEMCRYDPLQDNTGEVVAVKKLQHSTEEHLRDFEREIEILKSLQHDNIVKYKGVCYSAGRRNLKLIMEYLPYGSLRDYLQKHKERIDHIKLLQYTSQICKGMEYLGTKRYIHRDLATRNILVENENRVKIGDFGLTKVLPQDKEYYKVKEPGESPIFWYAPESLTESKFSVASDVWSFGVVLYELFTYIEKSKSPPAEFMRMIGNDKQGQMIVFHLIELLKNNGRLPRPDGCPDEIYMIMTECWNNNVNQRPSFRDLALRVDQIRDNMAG
Sequence of TYK2 (P29597 whole entry): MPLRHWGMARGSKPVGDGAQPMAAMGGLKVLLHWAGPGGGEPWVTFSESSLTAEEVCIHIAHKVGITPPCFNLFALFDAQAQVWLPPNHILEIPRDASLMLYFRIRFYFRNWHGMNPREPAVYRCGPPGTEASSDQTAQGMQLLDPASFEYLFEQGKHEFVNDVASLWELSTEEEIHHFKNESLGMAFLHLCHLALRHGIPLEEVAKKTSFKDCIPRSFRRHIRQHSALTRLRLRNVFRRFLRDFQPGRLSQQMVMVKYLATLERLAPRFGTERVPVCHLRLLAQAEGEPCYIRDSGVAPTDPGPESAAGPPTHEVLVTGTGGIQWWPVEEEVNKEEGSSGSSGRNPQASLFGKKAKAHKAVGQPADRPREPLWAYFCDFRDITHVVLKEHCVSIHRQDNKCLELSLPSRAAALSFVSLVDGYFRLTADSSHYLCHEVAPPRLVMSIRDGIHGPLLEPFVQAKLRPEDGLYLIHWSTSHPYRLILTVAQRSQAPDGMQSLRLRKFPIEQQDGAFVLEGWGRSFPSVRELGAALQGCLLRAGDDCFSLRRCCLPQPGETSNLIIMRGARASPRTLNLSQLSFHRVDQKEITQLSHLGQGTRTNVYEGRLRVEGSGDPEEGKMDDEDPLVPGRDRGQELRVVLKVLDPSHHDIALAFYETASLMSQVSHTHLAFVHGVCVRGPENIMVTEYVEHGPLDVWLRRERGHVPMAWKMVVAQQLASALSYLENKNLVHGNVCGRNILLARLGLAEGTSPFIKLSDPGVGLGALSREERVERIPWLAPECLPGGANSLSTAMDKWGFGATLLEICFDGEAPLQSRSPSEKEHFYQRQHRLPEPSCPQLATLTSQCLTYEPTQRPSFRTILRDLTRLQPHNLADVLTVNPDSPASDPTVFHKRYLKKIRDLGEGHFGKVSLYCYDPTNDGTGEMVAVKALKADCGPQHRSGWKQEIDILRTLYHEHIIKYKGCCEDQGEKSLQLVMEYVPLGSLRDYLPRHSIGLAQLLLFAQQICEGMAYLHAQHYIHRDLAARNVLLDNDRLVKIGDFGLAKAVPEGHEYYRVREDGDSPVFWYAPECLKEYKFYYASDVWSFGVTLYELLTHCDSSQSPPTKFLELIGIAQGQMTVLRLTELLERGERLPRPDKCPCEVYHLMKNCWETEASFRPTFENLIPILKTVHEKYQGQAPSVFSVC

SMILES	Ki (TYK2) [nM]	Ki (JAK2) [nM]
CN1CCN(C)[C@@](C)(c2ccc(Nc3nc(-c4c(F)cccc4F)nc4c3C(=O)NC4)cc2)C1=O [Compound I-211, (S)-2-(2,6-difluorophenyl)-4-((4-(1,2,4-trimethyl-3-oxopiperazin-2-yl)phenyl)amino)-6,7-dihydro-5H-pyrrolo[3,4-d]pyrimidin-5-one]	< 10	10 to 100
O=C1NCc2nc(-c3c(F)cccc3F)nc(Nc3ccc([C@H]4CCN(C5CCC5)C4=O)cc3)c21 [Compound I-118, (R)-4-((4-(1-cyclobutyl-2-oxopyrrolidin-3-yl)phenyl)amino)-2-(2,6-difluorophenyl)-6,7-dihydro-5H-pyrrolo[3,4-d]pyrimidin-5-one]	< 10	100 to 1000
CC1(c2ccc(Nc3nc(-c4c(F)cccc4F)nc4c3C(=O)NC4)cc2)NC(=O)NC1=O (centres unmarked) [Compound I-172, 5-(4-((2-(2,6-difluorophenyl)-5-oxo-6,7-dihydro-5H-pyrrolo[3,4-d]pyrimidin-4-yl)amino)phenyl)-5-methylimidazolidine-2,4-dione]	< 10	10 to 100
NC(=O)Cc1ccc(Nc2nc(-c3ccccc3Cl)nc3c2C(=O)NC3)cc1 [Compound I-8, 2-(4-((2-(2-chlorophenyl)-5-oxo-6,7-dihydro-5H-pyrrolo[3,4-d]pyrimidin-4-yl)amino)phenyl)acetamide]	10 to 100	> 1000
O=C1NCc2nc(-c3c(F)cccc3F)nc(Nc3ccc(C(=O)N4CC5(COC5)C4)cc3)c21 [Compound I-157, 4-((4-(2-oxa-6-azaspiro[3.3]heptane-6-carbonyl)phenyl)amino)-2-(2,6-difluorophenyl)-6,7-dihydro-5H-pyrrolo[3,4-d]pyrimidin-5-one]	10 to 100	100 to 1000
O=C(O)Cc1ccc(Nc2nc(-c3c(F)cccc3F)nc3c2C(=O)NC3)cc1 [Compound I-2, 2-(4-((2-(2,6-difluorophenyl)-5-oxo-6,7-dihydro-5H-pyrrolo[3,4-d]pyrimidin-4-yl)amino)phenyl)acetic Acid]	< 10	> 1000
O=C1NCc2nc(-c3c(F)cccc3F)nc(Nc3ccc(C(=O)N4CCC4)cc3)c21 [Compound I-158, 4-((4-(azetidine-1-carbonyl)phenyl)amino)-2-(2,6-difluoro-phenyl)-6,7-dihydro-5H-pyrrolo[3,4-d]pyrimidin-5-one]	10 to 100	100 to 1000
C=C(C(=O)NCC)c1ccc(Nc2nc(-c3c(F)cccc3F)nc3c2C(=O)NC3)cc1 [Compound I-203, 2-(4-((2-(2,6-difluorophenyl)-5-oxo-6,7-dihydro-5H-pyrrolo[3,4-d]pyrimidin-4-yl)amino)phenyl)-N-ethylacrylamide]	10 to 100	100 to 1000
CN1CC[C@@](C)(c2ccc(Nc3nc(-c4c(F)cccc4F)nc4c3C(=O)NC4)cc2)C1=O [Compound I-151, (S)-2-(2,6-difluorophenyl)-4-((4-(1,3-dimethyl-2-oxopyrrolidin-3-yl)phenyl)amino)-6,7-dihydro-5H-pyrrolo[3,4-d]pyrimidin-5-one]	< 10	100 to 1000
O=C1NCc2nc(-c3c(F)cccc3F)nc(Nc3ccc(Cl)cc3)c21 [Compound I-180, 4-((4-chlorophenyl)amino)-2-(2,6-difluorophenyl)-6,7-dihydro-5H-pyrrolo[3,4-d]pyrimidin-5-one]	10 to 100	> 1000
CC(C)(O)CNC(=O)Cc1ccc(Nc2nc(-c3c(F)cccc3F)nc3c2C(=O)NC3)cc1 [Compound I-76, 2-(4-((2-(2,6-difluorophenyl)-5-oxo-6,7-dihydro-5H-pyrrolo[3,4-d]pyrimidin-4-yl)amino)phenyl)-N-(2-hydroxy-2-methylpropyl)acetamide]	< 10	10 to 100
N#Cc1cc(Cl)c(-c2nc3c(c(Nc4ccc(CC(=O)O)cc4)n2)C(=O)NC3)c(Cl)c1 [Compound I-9, 2-(4-((2-(2,6-dichloro-4-cyanophenyl)-5-oxo-6,7-dihydro-5H-pyrrolo[3,4-d]pyrimidin-4-yl)amino)phenyl)acetic Acid]	< 10	100 to 1000
C[C@]1(c2ccc(Nc3nc(-c4c(F)cccc4F)nc4c3C(=O)NC4)cc2)CCN(C2CCOCC2)C1=O [Compound I-126, (R)-2-(2,6-difluorophenyl)-4-((4-(3-methyl-2-oxo-1-(tetrahydro-2H-pyran-4-yl)pyrrolidin-3-yl)phenyl)amino)-6,7-dihydro-5H-pyrrolo[3,4-d]pyrimidin-5-one]	< 10	10 to 100
COC(=O)Cc1ccc(Nc2nc(-c3c(F)cccc3F)nc3c2C(=O)NC3)cn1 [Compound I-18, methyl 2-(5-((2-(2,6-difluorophenyl)-5-oxo-6,7-dihydro-5H-pyrrolo[3,4-d]pyrimidin-4-yl)amino)pyridin-2-yl)acetate]	100 to 1000	> 1000
O=C(O)c1ccc(Nc2nc(-c3c(F)cccc3F)nc3c2C(=O)NC3)cc1 [Compound I-156, 4-((2-(2,6-difluorophenyl)-5-oxo-6,7-dihydro-5H-pyrrolo[3,4-d]pyrimidin-4-yl)amino)benzoicacid]	< 10	100 to 1000
O=C1NCc2nc(-c3c(F)cccc3F)nc(N[C@H]3C[C@H](C(=O)O)C3)c21 [Compound I-130, (1r,3r)-3-((2-(2,6-difluorophenyl)-5-oxo-6,7-dihydro-5H-pyrrolo[3,4-d]pyrimidin-4-yl)amino)cyclobutane-1-carboxylic Acid]	> 1000	> 1000
CC1(C)CN(c2ccc(Nc3cc(-c4c(F)cccc4F)nc4c3C(=O)NC4)nc2)CC[C@H]1O [Compound I-268, (R)-2-(2,6-difluorophenyl)-4-((5-(4-hydroxy-3,3-dimethyl-piperidin-1-yl)pyridin-2-yl)amino)-6,7-dihydro-5H-pyrrolo[3,4-b]pyridin-5-one]	< 10	10 to 100
O=C(NCC1CC1)c1ccc(Nc2cc(-c3c(F)cccc3F)nc3c2C(=O)NC3)nc1 [Compound I-226, N-(cyclopropylmethyl)-6-((2-(2,6-difluorophenyl)-5-oxo-6,7-dihydro-5H-pyrrolo[3,4-b]pyridin-4-yl)amino)nicotinamide]	< 10	10 to 100
CC1(c2ccc(Nc3nc(-c4c(F)cccc4F)nc4c3C(=O)NC4)cc2)CCN(C2CCOCC2)C1=O (centres unmarked) [Compound I-124, 2-(2,6-difluorophenyl)-4-((4-(3-methyl-2-oxo-1-(tetrahydro-2H-pyran-4-yl)pyrrolidin-3-yl)phenyl)amino)-6,7-dihydro-5H-pyrrolo[3,4-d]pyrimidin-5-one]	< 10	10 to 100
O=C1NCc2nc(-c3c(F)cccc3Cl)cc(Nc3ccc(N4CCCC4)cn3)c21 [Compound I-204, 2-(2-chloro-6-fluorophenyl)-4-((5-(pyrrolidin-1-yl)pyridin-2-yl)amino)-6,7-dihydro-5H-pyrrolo[3,4-b]pyridin-5-one]	< 10	> 1000
CCOC(=O)C(C)(C)c1ccc(Nc2nc(-c3c(F)cccc3F)nc3c2C(=O)NC3)cc1 [Compound I-178, ethyl 2-(4-((2-(2,6-difluorophenyl)-5-oxo-6,7-dihydro-5H-pyrrolo[3,4-d]pyrimidin-4-yl)amino)phenyl)-2-methylpropanoate]	< 10	100 to 1000
O=C1NCc2nc(-c3c(F)cccc3Cl)nc(Nc3ccc(C4CCNC4=O)cc3)c21 (centres unmarked) [Compound I-113, 2-(2-chloro-6-fluorophenyl)-4-((4-(2-oxopyrrolidin-3-yl)phenyl)-amino)-6,7-dihydro-5H-pyrrolo[3,4-d]pyrimidin-5-one]	< 10	100 to 1000
O=C1NCc2nc(-c3c(F)cccc3F)nc(Nc3ccc([C@H]4CCN(CCN5CCOCC5)C4=O)cc3)c21 [Compound I-122, (R)-2-(2,6-difluorophenyl)-4-((4-(1-(2-morpholinoethyl)-2-oxopyrrolidin-3-yl)phenyl)amino)-6,7-dihydro-5H-pyrrolo[3,4-d]pyrimidin-5-one]	< 10	100 to 1000
CCOC(=O)Cc1ccc(Nc2nc(-c3c(F)cccc3Cl)nc3c2C(=O)NC3)cc1 [Compound I-4, ethyl 2-(4-((2-(2-chloro-6-fluorophenyl)-5-oxo-6,7-dihydro-5H-pyrrolo[3,4-d]pyrimidin-4-yl)amino)phenyl)acetate]	< 10	100 to 1000
N[C@H]1CCCN(c2ccc(Nc3cc(-c4c(F)cccc4F)nc4c3C(=O)NC4)nc2)C1 [Compound I-143, (S)-4-((5-(3-aminopiperidin-1-yl)pyridin-2-yl)amino)-2-(2,6-difluorophenyl)-6,7-dihydro-5H-pyrrolo[3,4-b]pyridin-5-one]	< 10	10 to 100
O=C(Cc1ccc(Nc2nc(-c3c(F)cccc3C(F)(F)F)nc3c2C(=O)NC3)cc1)NC1CCNCC1 [Compound I-83, 2-(4-((2-(2-fluoro-6-(trifluoromethyl)phenyl)-5-oxo-6,7-dihydro-5H-pyrrolo[3,4-d]pyrimidin-4-yl)amino)phenyl)-N-(piperidin-4-yl)acetamide]	10 to 100	100 to 1000
CN1C(=O)[C@@](C)(c2ccc(Nc3nc(-c4c(F)cccc4F)nc4c3C(=O)NC4)cc2)CC1(C)C [Compound I-222, (R)-2-(2,6-difluorophenyl)-4-((4-(1,3,5,5-tetramethyl-2-oxopyrrolidin-3-yl)phenyl)amino)-6,7-dihydro-5H-pyrrolo[3,4-d]pyrimidin-5-one]	< 10	10 to 100
O=C(O)Cc1ccc(Nc2cc(-c3c(F)cccc3F)nc3c2C(=O)NC3)nc1 [Compound I-186, 2-(6-((2-(2,6-difluorophenyl)-5-oxo-6,7-dihydro-5H-pyrrolo[3,4-b]pyridin-4-yl)amino)pyridin-3-yl)acetic Acid]	< 10	100 to 1000
